Laboratory results reported in ChEMBL document CHEMBL4673383, “Discovery of a Pyrimidothiazolodiazepinone as a Potent and Selective Focal Adhesion Kinase (FAK) Inhibitor” (ACS Med Chem Lett, 2021).
Active and inactive are the calls of the source. No cut-off for these calls is given here.

Key:
[1] = tested on: MDA-MB-231; test: Antiproliferative activity against human MDA-MB-231 cells assessed as reduction in cell viability incubated for 120 hrs using ultra-low adherent 3D-spheroids by CellTiter-glo assay; assay type: functional, cell-based; conditions: MDA-MB-231, 120 h
[2] = tested on: MDA-MB-231; test: Antiproliferative activity against human MDA-MB-231 cells cultured as 2D-adherent monolayer assessed as reduction in cell viability by Celltiter-Glo assay; assay type: functional, cell-based
[3] = tested on: MDA-MB-231; test: Antiproliferative activity against human MDA-MB-231 cells cultured as 3D-spheroids assessed as reduction in cell viability by Celltiter-Glo assay; assay type: functional, cell-based
[4] = molecular target: Focal adhesion kinase 1 (Homo sapiens, UniProt Q05397); test: Inhibition of Focal adhesion kinase (unknown origin) using Tyr 07 peptide substrate incubated for 60 mins at room temperature followed by 60 mins development reaction measured fluorescence by Z-LYTE assay
Sequence of Focal adhesion kinase 1 (Q05397 whole entry): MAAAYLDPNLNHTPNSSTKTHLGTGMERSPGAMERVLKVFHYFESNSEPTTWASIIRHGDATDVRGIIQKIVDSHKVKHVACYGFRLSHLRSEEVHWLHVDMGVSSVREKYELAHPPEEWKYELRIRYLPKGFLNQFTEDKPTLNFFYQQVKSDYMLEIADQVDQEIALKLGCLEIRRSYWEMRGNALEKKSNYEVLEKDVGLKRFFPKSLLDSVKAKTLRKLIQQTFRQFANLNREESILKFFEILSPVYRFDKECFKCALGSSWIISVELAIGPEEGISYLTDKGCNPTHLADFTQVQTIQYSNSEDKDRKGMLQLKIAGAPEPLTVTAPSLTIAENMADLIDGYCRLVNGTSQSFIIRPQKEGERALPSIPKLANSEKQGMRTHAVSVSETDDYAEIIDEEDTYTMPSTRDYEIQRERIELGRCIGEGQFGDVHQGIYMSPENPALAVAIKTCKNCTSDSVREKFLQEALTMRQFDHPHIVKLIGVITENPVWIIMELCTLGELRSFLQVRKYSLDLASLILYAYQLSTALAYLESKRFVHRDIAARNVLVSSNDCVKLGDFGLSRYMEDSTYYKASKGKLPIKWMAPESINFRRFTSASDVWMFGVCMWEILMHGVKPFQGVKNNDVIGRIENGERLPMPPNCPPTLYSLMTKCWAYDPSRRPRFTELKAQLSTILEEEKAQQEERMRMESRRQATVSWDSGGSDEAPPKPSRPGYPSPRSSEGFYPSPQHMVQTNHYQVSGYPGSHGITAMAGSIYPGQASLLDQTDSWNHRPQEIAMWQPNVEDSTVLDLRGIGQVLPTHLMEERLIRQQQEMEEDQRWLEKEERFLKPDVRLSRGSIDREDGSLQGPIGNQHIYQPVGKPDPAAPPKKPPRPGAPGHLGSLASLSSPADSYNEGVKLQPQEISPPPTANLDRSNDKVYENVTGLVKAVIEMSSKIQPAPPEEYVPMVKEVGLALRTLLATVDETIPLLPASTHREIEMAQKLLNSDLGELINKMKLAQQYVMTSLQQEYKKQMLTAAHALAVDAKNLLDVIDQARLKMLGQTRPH

[5] = tested on: HT-29; test: Antiproliferative activity against human HT-29 cells cultured as 3D-spheroids assessed as reduction in cell viability by Celltiter-Glo assay; assay type: functional, cell-based
[6] = tested on: HT-29; test: Antiproliferative activity against human HT-29 cells cultured as 2D-adherent monolayer assessed as reduction in cell viability by Celltiter-Glo assay; assay type: functional, cell-based
[7] = Efflux ratio of apparent permeability in human Caco-2 cells; assay type: ADME, cell-based
[8] = Apparent permeability of the compound across apical to basolateral side in human Caco-2 cells; assay type: ADME, cell-based
[9] = molecular target: Glycogen synthase kinase-3 beta (Homo sapiens, UniProt P49841); test: Inhibition of human GSK3beta
Sequence of Glycogen synthase kinase-3 beta (P49841 whole entry): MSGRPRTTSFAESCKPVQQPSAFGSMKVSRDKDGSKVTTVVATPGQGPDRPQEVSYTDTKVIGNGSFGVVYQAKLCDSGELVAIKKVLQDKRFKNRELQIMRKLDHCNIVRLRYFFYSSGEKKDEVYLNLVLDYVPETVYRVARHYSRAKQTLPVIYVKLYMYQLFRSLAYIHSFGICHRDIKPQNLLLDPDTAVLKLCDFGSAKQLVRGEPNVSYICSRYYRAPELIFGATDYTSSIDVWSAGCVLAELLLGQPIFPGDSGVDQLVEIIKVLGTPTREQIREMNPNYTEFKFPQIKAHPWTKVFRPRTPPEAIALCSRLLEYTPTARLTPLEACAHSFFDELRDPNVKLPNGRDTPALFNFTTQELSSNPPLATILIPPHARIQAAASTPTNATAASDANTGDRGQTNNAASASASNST

[10] = molecular target: Cyclin-dependent kinase 1/cyclin B1 (Homo sapiens, UniProt P06493); test: Inhibition of human CDK1/cyclinB; assay type: protein-complex assay
Sequence of Cyclin-dependent kinase 1/cyclin B1 (P06493 whole entry): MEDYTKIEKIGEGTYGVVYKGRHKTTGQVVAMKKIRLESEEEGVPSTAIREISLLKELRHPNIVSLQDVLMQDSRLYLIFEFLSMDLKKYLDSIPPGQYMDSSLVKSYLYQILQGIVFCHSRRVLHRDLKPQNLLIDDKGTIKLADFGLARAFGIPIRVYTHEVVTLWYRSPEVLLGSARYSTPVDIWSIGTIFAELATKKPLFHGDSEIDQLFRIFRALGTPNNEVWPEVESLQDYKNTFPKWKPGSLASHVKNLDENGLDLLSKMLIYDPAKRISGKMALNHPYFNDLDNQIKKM
Sequence of Cyclin-dependent kinase 1/cyclin B1 (P14635 whole entry, further chain): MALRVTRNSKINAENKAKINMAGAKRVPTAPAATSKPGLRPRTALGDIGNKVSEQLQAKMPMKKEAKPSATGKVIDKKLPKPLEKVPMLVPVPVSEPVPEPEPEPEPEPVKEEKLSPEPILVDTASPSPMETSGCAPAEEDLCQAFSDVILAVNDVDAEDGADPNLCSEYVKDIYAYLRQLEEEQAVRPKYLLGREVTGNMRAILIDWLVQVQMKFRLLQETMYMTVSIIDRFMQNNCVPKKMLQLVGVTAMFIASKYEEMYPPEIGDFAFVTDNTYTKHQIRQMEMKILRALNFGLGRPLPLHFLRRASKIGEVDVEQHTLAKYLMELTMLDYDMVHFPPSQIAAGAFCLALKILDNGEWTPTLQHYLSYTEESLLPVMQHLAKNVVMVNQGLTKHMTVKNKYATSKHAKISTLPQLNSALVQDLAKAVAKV

[11] = molecular target: Protein-tyrosine kinase 2-beta (Homo sapiens, UniProt Q14289); test: Inhibition of Pyk2 (unknown origin)
[12] = molecular target: CDK7/Cyclin H/MNAT1 (Homo sapiens, UniProt P50613); test: Inhibition of human CDK7/cyclinH/MAT1; assay type: protein-complex assay
Sequence of CDK7/Cyclin H/MNAT1 (P51946 whole entry): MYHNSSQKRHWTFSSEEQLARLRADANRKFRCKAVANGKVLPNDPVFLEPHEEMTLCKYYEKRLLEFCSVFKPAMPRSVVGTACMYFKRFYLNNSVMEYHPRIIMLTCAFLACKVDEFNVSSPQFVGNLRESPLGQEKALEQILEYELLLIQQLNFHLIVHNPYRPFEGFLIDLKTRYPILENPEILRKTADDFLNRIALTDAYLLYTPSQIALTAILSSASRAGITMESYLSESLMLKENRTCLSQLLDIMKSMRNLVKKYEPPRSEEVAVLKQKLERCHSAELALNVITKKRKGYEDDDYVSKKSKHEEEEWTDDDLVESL
Sequence of CDK7/Cyclin H/MNAT1 (P50613 whole entry): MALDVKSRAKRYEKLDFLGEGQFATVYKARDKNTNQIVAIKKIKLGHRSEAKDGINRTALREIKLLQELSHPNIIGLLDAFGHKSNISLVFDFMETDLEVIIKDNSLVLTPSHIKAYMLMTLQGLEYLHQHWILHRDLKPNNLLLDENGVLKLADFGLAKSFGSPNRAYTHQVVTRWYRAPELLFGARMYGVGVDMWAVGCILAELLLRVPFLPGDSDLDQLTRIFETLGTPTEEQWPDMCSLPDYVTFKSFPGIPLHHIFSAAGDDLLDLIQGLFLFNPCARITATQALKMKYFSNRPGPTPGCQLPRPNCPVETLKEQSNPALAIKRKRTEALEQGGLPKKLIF
Sequence of CDK7/Cyclin H/MNAT1 (P51948 whole entry, further chain): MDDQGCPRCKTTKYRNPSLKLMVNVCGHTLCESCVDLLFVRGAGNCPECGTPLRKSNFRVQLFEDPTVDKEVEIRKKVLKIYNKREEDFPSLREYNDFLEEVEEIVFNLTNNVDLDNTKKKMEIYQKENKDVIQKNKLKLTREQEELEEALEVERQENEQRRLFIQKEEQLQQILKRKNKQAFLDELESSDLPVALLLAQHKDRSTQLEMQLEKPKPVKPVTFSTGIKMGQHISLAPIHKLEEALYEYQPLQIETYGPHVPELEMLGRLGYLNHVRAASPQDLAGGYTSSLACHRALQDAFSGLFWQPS

[13] = molecular target: Focal adhesion kinase 1 (Mus musculus) (UniProt P34152); test: Inhibition of FAK in CDH1-/- RHOAY42C/+ mouse gastric cancer organoid model assessed as pFAY Y397 phosphorylation at 5 uM incubated for 24 hrs by immunoblot analysis; assay type: tissue-based; conditions: Stomach
Sequence of Focal adhesion kinase 1 (Mus musculus) (P34152 whole entry): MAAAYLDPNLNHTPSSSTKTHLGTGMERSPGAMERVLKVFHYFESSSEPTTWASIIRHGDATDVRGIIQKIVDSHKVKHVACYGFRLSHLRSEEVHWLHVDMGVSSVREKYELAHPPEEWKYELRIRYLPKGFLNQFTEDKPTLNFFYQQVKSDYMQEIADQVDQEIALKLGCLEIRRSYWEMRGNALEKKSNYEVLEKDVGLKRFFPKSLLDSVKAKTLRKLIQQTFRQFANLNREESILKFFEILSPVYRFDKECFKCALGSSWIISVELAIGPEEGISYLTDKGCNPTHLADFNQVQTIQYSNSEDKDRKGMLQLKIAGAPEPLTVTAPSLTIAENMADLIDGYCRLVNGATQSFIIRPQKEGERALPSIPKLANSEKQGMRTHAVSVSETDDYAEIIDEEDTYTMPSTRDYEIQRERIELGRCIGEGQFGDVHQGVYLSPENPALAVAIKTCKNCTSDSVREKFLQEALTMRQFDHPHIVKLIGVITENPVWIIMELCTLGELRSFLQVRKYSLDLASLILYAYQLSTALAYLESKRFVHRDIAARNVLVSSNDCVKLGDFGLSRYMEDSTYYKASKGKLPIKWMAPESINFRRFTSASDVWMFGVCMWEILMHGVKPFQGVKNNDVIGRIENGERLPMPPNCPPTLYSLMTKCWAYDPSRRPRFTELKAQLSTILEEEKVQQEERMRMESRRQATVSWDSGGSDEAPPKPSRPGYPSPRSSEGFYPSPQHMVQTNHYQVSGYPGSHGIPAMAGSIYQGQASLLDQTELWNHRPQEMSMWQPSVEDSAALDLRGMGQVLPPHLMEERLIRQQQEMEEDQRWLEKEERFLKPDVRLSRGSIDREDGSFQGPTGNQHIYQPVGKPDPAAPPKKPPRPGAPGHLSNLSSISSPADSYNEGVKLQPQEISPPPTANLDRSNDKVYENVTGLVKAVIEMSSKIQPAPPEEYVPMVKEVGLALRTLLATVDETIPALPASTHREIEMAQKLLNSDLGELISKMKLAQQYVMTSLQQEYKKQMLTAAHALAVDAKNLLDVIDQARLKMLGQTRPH

[14] = species: Mus musculus; test: Antiproliferative activity against CDH1-/-RHOAY42C/+ mouse diffuse gastric cancer organoid model assessed as reduction in cell viability at 5 uM; assay type: functional, tissue-based; conditions: Stomach
[15] = molecular target: Focal adhesion kinase 1 (Mus musculus) (UniProt P34152); test: Inhibition of FAK in CDH1-/- RHOAY42C/+ mouse gastric cancer organoid model assessed as nonphosphorylated YAP at 0.1 to 20 uM incubated for 24 hrs by immunoblot analysis; assay type: tissue-based; conditions: Stomach, dose 0.1-20 µM
[16] = molecular target: Focal adhesion kinase 1 (Mus musculus) (UniProt P34152); test: Inhibition of FAK in CDH1-/- RHOAY42C/+ mouse gastric cancer organoid model assessed as […] phosphorylation at 5 uM incubated for 24 hrs by immunoblot analysis; assay type: tissue-based; conditions: Stomach
[17] = molecular target: Focal adhesion kinase 1 (Mus musculus) (UniProt P34152); test: Inhibition of FAK in CDH1-/- RHOAY42C/+ mouse gastric cancer organoid model assessed as total YAP/TAZ level at 5 uM incubated for 24 hrs by immunoblot analysis; assay type: tissue-based; conditions: Stomach
[18] = molecular target: Focal adhesion kinase 1 (Mus musculus) (UniProt P34152); test: Inhibition of FAK in CDH1-/- RHOAY42C/+ mouse gastric cancer organoid model assessed as […] phosphorylation at 0.1 to 20 uM incubated for 24 hrs by immunoblot analysis; assay type: tissue-based; conditions: Stomach, dose 0.1-20 µM
[19] = Oral bioavailability in C57BI/6 male mouse at 10 mg/kg; assay type: ADME, organism-based; conditions: C57BL/6, mouse, in vivo
[20] = species: Homo sapiens; test: Antiproliferative activity against human gastric organoid assessed as reduction in cell viability by Celltiter-Glo assay; assay type: functional, tissue-based; conditions: Stomach
[21] = molecular target: Serine/threonine-protein kinase PLK1 (Homo sapiens) (UniProt P53350); test: Inhibition of PLK1 (unknown origin) assessed as cell cycle disruption
Sequence of Serine/threonine-protein kinase PLK1 (Homo sapiens) (P53350 whole entry): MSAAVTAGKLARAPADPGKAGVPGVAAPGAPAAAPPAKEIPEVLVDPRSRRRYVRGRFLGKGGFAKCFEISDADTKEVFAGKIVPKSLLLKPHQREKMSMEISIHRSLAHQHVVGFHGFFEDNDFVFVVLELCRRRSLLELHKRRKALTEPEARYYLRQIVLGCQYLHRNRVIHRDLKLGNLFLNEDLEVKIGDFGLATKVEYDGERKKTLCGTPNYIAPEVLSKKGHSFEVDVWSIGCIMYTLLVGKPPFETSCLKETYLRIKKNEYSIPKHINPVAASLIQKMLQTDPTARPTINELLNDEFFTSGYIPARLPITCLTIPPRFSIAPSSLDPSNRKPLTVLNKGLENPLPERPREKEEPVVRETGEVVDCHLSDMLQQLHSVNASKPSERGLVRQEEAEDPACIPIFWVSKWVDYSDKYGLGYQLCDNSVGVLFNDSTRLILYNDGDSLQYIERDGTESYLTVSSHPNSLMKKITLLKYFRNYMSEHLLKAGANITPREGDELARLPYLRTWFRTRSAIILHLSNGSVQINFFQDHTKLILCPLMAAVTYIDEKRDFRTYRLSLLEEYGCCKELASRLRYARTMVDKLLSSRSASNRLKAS

[22] = Volume of distribution at steady-state in C57BI/6 male mouse at 2 mg/kg, iv; assay type: ADME, organism-based; conditions: C57BL/6, mouse, in vivo, read-out: Vdss
[23] = Half life in C57BI/6 male mouse at 2 mg/kg, iv; assay type: ADME, organism-based; conditions: C57BL/6, mouse, in vivo
[24] = Tmax in C57BI/6 male mouse at 10 mg/kg, po; assay type: ADME, organism-based; conditions: C57BL/6, mouse, in vivo
[25] = AUC(infinity) in C57BI/6 male mouse at 10 mg/kg, po; assay type: ADME, organism-based; design: route oral, time infinity, dose 10 mg/kg; conditions: C57BL/6, mouse, in vivo
[26] = Cmax in C57BI/6 male mouse at 10 mg/kg, po; assay type: ADME, organism-based; design: route oral, dose 10 mg/kg; conditions: C57BL/6, mouse, in vivo
[27] = molecular target: Focal adhesion kinase 1 (Mus musculus) (UniProt P34152); test: Inhibition of FAK in mouse gastric organoid by Immunoblotting
[28] = Clearance in C57BI/6 male mouse at 2 mg/kg, iv; assay type: ADME, organism-based; conditions: C57BL/6, mouse, in vivo
[29] = tested on: MDA-MB-231; test: Inhibition of cell migration in human MDA-MB-231 cells incubated for 24 hrs by microscopy method; assay type: functional, cell-based

COc1cc(C(=O)N2CCC(N3CCN(C)CC3)CC2)ccc1Nc1ncc2c(n1)N(C)c1sc(C)nc1C(=O)N2C
IC50 [1]: > 10 µM

COc1cc(N2CCNCC2)ccc1Nc1ncc2c(n1)N(C)c1sc(C)nc1C(=O)N2C
Activity [2]: inactive
Activity [3]: Active
IC50 [1]: 2.5 µM

Cc1nc2c(s1)N(C)c1nc(Nc3ccc4c(c3)CCC(=O)N4)ncc1N(C)C2=O
IC50 [1]: > 10 µM

COc1cc(N2CCN(C)CC2)ccc1Nc1ncc2c(n1)N(C)c1ncsc1C(=O)N2
IC50 [4]: > 10 µM

CNC(=O)c1ccccc1Nc1cc(Nc2ccc(N3CCOCC3)cc2OC)ncc1C(F)(F)F
Activity [5]: Active
Activity [6]: Active

COc1cc(N2CCC(N3CCN(C)CC3)CC2)ccc1Nc1ncc2c(n1)N(C)c1sc(-c3ccccc3)nc1C(=O)N2C
IC50 [4]: > 10 µM

CCN1C(=O)c2nc(C)sc2N(C)c2nc(Nc3ccc(N4CCC(N5CCN(C)CC5)CC4)cc3OC)ncc21
Activity [2]: inactive
efflux ratio [7]: 2.2
Activity [3]: Active
Papp A→B [8]: 8.3 ×10⁻⁶ cm/s
IC50 [1]: 0.93 µM

CNC(=O)c1ccc(Nc2ncc3c(n2)N(C)c2sc(C)nc2C(=O)N3C)cc1
IC50 [1]: 5.9 µM

CS(=O)(=O)c1cccc(CNc2nc(Nc3ccc4c(c3)CCC(=O)N4)ncc2C(F)(F)F)c1
IC50 [9]: < 1 µM
IC50 [10]: < 1 µM
IC50 [11]: < 1 µM
Activity [6]: Active
IC50 [12]: < 1 µM

CCOc1cc(N2CCN(C)CC2)ccc1Nc1ncc2c(n1)N(C)c1sc(C)nc1C(=O)N2C
IC50 [1]: 6.1 µM

COc1cc(N2CCN(C)CC2)ccc1Nc1ncc2c(n1)N(C)c1sc(C)nc1C(=O)N2C
Activity [2]: inactive
Activity [3]: Active
IC50 [1]: 2.3 µM

COc1cc(N2CCN(CCO)CC2)ccc1Nc1ncc2c(n1)N(C)c1sc(C)nc1C(=O)N2C
IC50 [1]: > 10 µM

COc1cc2c(cc1Nc1ncc3c(n1)N(C)c1sc(C)nc1C(=O)N3C)CN(C)CC2
IC50 [1]: > 10 µM

COc1cc(N2CCC(N3CCN(C)CC3)CC2)ccc1Nc1ncc2c(n1)N(C)c1oc(C)nc1C(=O)N2C
IC50 [4]: 0.525 µM
IC50 [1]: > 10 µM

CNC(=O)c1ccc(Nc2ncc(C(F)(F)F)c(NCc3nccnc3N(C)S(C)(=O)=O)n2)cc1
inhibition [13]: Active
Activity [14]: Active
inhibition [15]: Active
Activity [6]: Active
inhibition [16]: Active
inhibition [17]: Active

COc1cc(N2CCN(C)CC2)ccc1Nc1ncc2c(n1)N(C)c1cn(C)nc1C(=O)N2
IC50 [4]: 0.123 µM

COc1cc(N2CCN(S(C)(=O)=O)CC2)ccc1Nc1ncc2c(n1)N(C)c1sc(C)nc1C(=O)N2C
IC50 [1]: > 10 µM

COc1cc(N2CCN(C)CC2)c(C)cc1Nc1ncc2c(n1)N(C)c1sc(C)nc1C(=O)N2C
IC50 [1]: 7.7 µM

COc1cc(N2CCC(N3CCN(C)CC3)CC2)ccc1Nc1ncc2c(n1)N(C)c1sc(C)nc1C(=O)N2C
Activity [2]: inactive
Activity [5]: inactive
inhibition [18]: Active
bioavailability [19]: 18.3%
Activity [20]: Dose-dependent effect
inhibition [21]: inactive
Vd [22]: 4.07 L/kg
Activity [3]: Active
half-life [23]: 5.29 h
Papp A→B [8]: 5.8 ×10⁻⁶ cm/s
Tmax [24]: 4 h
AUC(0-inf) [25]: 1820 ng·h/mL
Cmax [26]: 420 nM
Activity [6]: inactive
inhibition [27]: Active
clearance [28]: 18.5 mL/min/kg
inhibition [29]: Active

CNC(=O)c1ccc(Nc2ncc3c(n2)N(C)c2sc(C)nc2C(=O)N3C)c(OC)c1
IC50 [1]: > 10 µM

Cc1nc2c(s1)N(C)c1nc(Nc3ccc(N4CCN(C)CC4)cc3OCCO)ncc1N(C)C2=O
IC50 [4]: 0.0465 µM

CCN1c2nc(Nc3ccc(N4CCC(N5CCN(C)CC5)CC4)cc3OC)ncc2N(C)C(=O)c2nc(C)sc21
IC50 [1]: > 10 µM

COc1cc(C2CCN(C)CC2)ccc1Nc1ncc2c(n1)N(C)c1sc(C)nc1C(=O)N2C
Activity [2]: inactive
Activity [3]: Active
IC50 [1]: 3.7 µM

COc1cc(N2CCN(C)CC2)ccc1Nc1ncc2c(n1)N(C)c1ccccc1C(=O)N2
IC50 [4]: > 10 µM
